In assay [1] the target is T1, human full length PIK3KA H1047R mutant (p110α/p85α complex) (Homo sapiens, UniProt P42336, H1047R).
T1 construct: Recombinant, catalytically active human full length PIK3KA Wild-type and H1047R mutant were purchased; 6xHis (N); purchased EMD Millipore Sigma 14-792M
Nature of the assay: PI3K-Alpha Kinase (PIK3CA) biochemical activity, H1047R mutant (ADP-Glo). The conditions noted are these: 20 uM ATP. From the text: (§1) PI3K-Alpha Kinase (PIK3CA) Activity, Wild-Type and H1047R Mutant and Determining IC50 Values for Inhibitors
(§2) Recombinant, catalytically active human full length PIK3KA Wild-type and H1047R mutant were purchased as 1:1 complex of N-terminal 6×his tagged p110α (catalytic) and untagged p85α, (regulatory subunit) from EMD Millipore Sigma (cat. no. 14-602M and 14-792M, respectively). PIP2diC8 (Avanti Polar Lipids Inc., cat. no. 850185) or Soy PI (Avanti Polar Lipids Inc., cat. No. 840044P) was used as lipid substrate. PIP2diC8 or PI lyophilized powder was dissolved in milliQ water to a concentration of 1 mM just before use. 10 mM stock compounds in DMSO were serially diluted 1:3 to generate a 10-point curve and plated using an acoustic liquid handler system (Echo 550 series instrument, Labcyte). A 10× intermediate compound plate (200 uM starting compound concentration and 10% DMSO) was prepared before starting the reaction. A typical reaction mixture (50 uL) comprised 40 mM HEPES buffer, pH 7.4, 25 mM MgCl2, 0.01% v/v triton-X-100, 1% v/v DMSO, 20 mM NaCl, 1-5 nM WT or H1047R PI3K protein, 20 uM ATP, and 50 uM PIP2diC8 or Soy PI. 1% DMSO buffer alone without test compound was employed as MAX control (full activity in the absence of any inhibitor), and no enzyme control was used to determine the level of background Adenosine 5′-diphosphate (ADP) (MIN control). First, Wild-type (WT) and H1047R mutant protein in kinase buffer with all components except ATP were incubated with or without compound at 27° C. for 1 h. After the pre-incubation, the reaction was initiated by the addition of […] (20 uM final concentration). The reaction was allowed to proceed until about 10% conversion of ATP (2 uM ADP) at 27° C. After that time, 5 uL of reaction was mixed with 5 uL of ADP-Kinase Glo Reagent (ADP-Glo Kinase assay kit, Promega cat. no. V9102) supplemented with MgCl2 10 mM to stop the reaction and deplete the remaining ATP for 40 min at room temperature. Then, 10 uL of Kinase Detection Reagent (ADP-Glo Kinase assay kit, Promega cat. no. V9102) was added to simultaneously convert ADP to ATP and allow the newly synthesized ATP to be measured using a luciferase/luciferin reaction. After 30 min at room temperature the light generated was measured using a luminometer (EnVision plate reader, Perkin Elmer). Process data through Genedata-Screener tool. Relative IC50 values are determined using luminescence units by calculating percent inhibition with respect to on-plate “MIN” and “MAX” controls. Data was analyzed using a 4-parameter nonlinear logistic equation (four-parameter logistic concentration-response curve):
(§3) Y=bot+[(top−bot)/1+(x/IC50)slope]
(§4) where Y=% inhibition, X=concentration yielding y % inhibition, Bottom=minimum value of y attained by curve, Top=maximum value of y attained by curve and Slope=steepness of curve at IC50.
(§5) % Inh=[(median Max−x/median Max−median Min)]·100
(§6) IC50: concentration of compound that reduces a given response (ligand binding, enzyme response) by 50%. IC50 relative: concentration giving half the compound's maximum response.
(§7) For IC50 values shown in Table A, “A” means IC50<0.5 μM; “B” means IC50 ranging between 0.5 μM and 1.0 μM; “C” means IC50 ranging between 1 μM and 5 μM; “D” means IC50 ranging between 5 μM and 10 μM; “E” means IC50>10 μM.

Assay [2] addresses T2, human full length PIK3KA Wild-type (p110α/p85α complex) (Homo sapiens, UniProt P42336).
T2 construct: Recombinant, catalytically active human full length PIK3KA Wild-type and H1047R mutant were purchased; 6xHis (N); purchased EMD Millipore Sigma 14-602M
Nature of the assay: PI3K-Alpha Kinase (PIK3CA) biochemical activity, wild-type (ADP-Glo). The conditions noted are these: 20 uM ATP.
Excerpt: as §1, §2, §3, §4, §5, §6, §7

SMILES strings stand for the structures. Where only a bound is given, the exact number is not on record here.

T1 sequence (P42336 whole entry H1047R): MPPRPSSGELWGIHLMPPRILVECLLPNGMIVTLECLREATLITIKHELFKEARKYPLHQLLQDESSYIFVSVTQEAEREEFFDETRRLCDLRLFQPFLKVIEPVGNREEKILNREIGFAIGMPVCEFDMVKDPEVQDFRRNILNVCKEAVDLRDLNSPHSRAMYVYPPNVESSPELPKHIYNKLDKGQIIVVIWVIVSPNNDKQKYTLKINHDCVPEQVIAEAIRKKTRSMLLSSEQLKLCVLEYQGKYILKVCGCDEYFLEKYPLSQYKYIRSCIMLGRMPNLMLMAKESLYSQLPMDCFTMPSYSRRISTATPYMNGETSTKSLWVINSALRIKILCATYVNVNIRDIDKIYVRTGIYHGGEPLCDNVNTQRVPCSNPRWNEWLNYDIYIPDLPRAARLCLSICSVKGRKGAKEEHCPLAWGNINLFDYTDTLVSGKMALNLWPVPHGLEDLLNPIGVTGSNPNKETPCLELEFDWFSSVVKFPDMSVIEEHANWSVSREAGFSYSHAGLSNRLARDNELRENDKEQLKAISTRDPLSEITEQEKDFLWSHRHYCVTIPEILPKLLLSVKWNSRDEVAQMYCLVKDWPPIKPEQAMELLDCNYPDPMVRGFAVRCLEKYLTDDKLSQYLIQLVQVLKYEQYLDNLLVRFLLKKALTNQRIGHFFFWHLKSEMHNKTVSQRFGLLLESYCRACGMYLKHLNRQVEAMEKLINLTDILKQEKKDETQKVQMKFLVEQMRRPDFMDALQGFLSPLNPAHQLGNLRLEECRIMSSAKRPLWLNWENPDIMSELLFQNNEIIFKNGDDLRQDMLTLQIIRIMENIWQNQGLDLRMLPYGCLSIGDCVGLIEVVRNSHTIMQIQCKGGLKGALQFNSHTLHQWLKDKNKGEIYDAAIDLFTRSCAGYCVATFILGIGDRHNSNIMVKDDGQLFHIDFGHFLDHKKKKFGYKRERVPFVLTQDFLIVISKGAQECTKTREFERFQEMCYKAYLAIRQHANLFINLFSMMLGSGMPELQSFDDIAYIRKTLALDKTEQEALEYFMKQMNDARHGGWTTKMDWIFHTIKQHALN
T1 sequence (P27986 whole entry partner): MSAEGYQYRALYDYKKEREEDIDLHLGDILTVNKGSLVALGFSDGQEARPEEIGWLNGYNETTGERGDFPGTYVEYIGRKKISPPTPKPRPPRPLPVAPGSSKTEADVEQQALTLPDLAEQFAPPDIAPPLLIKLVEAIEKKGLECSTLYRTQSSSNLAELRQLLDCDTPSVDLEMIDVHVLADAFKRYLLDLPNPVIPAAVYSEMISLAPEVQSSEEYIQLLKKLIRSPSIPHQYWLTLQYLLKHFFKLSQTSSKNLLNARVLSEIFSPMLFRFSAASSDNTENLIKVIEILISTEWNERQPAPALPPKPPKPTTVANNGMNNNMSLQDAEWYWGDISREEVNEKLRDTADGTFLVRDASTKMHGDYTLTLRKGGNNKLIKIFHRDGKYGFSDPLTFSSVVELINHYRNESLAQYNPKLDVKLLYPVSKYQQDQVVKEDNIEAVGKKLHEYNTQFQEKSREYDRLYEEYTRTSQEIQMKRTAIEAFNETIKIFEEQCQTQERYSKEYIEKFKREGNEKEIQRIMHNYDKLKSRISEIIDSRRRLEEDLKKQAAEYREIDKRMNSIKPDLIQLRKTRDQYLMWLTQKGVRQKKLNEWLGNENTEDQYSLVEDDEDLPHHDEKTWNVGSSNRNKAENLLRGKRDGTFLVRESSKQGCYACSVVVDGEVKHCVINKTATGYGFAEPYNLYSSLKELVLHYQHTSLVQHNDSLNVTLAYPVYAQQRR

Consider `Cc1cc(C(C)Nc2ccccc2C(=O)O)c2oc(-c3cnn(-c4ccc5c(c4)OC(F)(F)O5)c3)cc(=O)c2c1` (single isomer, unassigned) [Example 91, 2-[1-[2-[1-(2,2-Difluoro-1,3-benzodioxol-5-yl)pyrazol-4-yl]-6-methyl-4-oxo-chromen-8-yl]ethylamino]benzoic acid, Isomer 2,2,2,2-trifluoroacetic acid], for which the IC50 in assay [1] (Soy PI lipid substrate) is 0.5 to 1 µM; in assay [2] (Soy PI lipid substrate), more than 10 µM.

For `COc1ccc(-n2cc(-c3cc(=O)c4cc(C)cc(C(C)Nc5ccccc5C(=O)O)c4o3)cn2)cc1F` (single isomer, unassigned) [Example 92, 2-[1-[2-[1-(3-Fluoro-4-methoxy-phenyl)pyrazol-4-yl]-6-methyl-4-oxo-chromen-8-yl]ethylamino]benzoic acid, Isomer 2,2,2,2-trifluoroacetic acid], the concentration for half-maximal inhibition (IC50) was less than 0.5 µM in assay [1] (Soy PI lipid substrate) and 5 to 10 µM in assay [2] (Soy PI lipid substrate).

Turning to `Cc1cc(C(C)Nc2ccccc2C(=O)O)c2oc(-c3cnn(-c4ccc(OC(F)(F)F)cc4)c3)cc(=O)c2c1` (single isomer, unassigned) [Example 93, 2-[1-[6-Methyl-4-oxo-2-[1-[4-(trifluoromethoxy)phenyl]pyrazol-4-yl]chromen-8-yl]ethylamino]benzoic acid, Isomer 2,2,2,2-trifluoroacetic acid], the half-inhibitory concentration (IC50) in assay [1] (Soy PI lipid substrate) is 0.5 to 1 µM; in assay [2] (Soy PI lipid substrate) it was more than 10 µM.

As to `COc1cc(-n2cc(-c3cc(=O)c4cc(C)cc(C(C)Nc5ccccc5C(=O)O)c4o3)cn2)ccc1C#N` (single isomer, unassigned) [Example 94, 2-[1-[2-[1-(4-Cyano-3-methoxy-phenyl)pyrazol-4-yl]-6-methyl-4-oxo-chromen-8-yl]ethylamino]benzoic acid, Isomer 2,2,2,2-trifluoroacetic acid], the IC50 in assay [1] (Soy PI lipid substrate) was less than 0.5 µM; in assay [2] (Soy PI lipid substrate) it was 1 to 5 µM.

As for `Cc1cc(C(C)Nc2ccc(F)c(F)c2C(=O)O)c2oc(-c3cnn(-c4ccc(C#N)cc4)c3)cc(=O)c2c1` (single isomer, unassigned) [Example 95, 2,3-Difluoro-6-[1-[2-[1-(4-cyanophenyl)pyrazol-4-yl]-6-methyl-4-oxo-chromen-8-yl]ethylamino]benzoic acid, Isomer 1,2,2,2-trifluoroacetic acid], the IC50 is 1 to 5 µM in assay [1] (Soy PI lipid substrate) and more than 10 µM in assay [2] (Soy PI lipid substrate).

In the case of `Cc1cc(C(C)Nc2ccccc2C(=O)O)c2oc(-c3cnc(C#CC(C)(C)O)nc3)cc(=O)c2c1` (single isomer, unassigned) [Example 102, 2-[1-[2-[2-(3-Hydroxy-3-methyl-but-1-ynyl)pyrimidin-5-yl]-6-methyl-4-oxo-chromen-8-yl]ethylamino]benzoic acid, Isomer 2,2,2,2-trifluoroacetic acid], the half-inhibitory concentration (IC50) was 0.5 to 1 µM in assay [1] (Soy PI lipid substrate) and 5 to 10 µM in assay [2] (Soy PI lipid substrate).

In the case of `Cc1cc(C(C)Nc2ccccc2C(=O)O)c2oc(-c3cn(-c4ccc(C#N)cc4)cn3)cc(=O)c2c1` (single isomer, unassigned) [Example 103, 2-[1-[2-[1-(4-Cyanophenyl)imidazol-4-yl]-6-methyl-4-oxo-chromen-8-yl]ethylamino]benzoic acid, Isomer 2,2,2,2-trifluoroacetic acid], the 50% inhibitory concentration (IC50) is less than 0.5 µM in assay [1] (Soy PI lipid substrate) and 5 to 10 µM in assay [2] (Soy PI lipid substrate).

Take `Cc1cc(C(C)Nc2ccccc2C(=O)O)c2oc(-c3cnn(-c4ccc(C#N)cc4F)c3)cc(=O)c2c1` (single isomer, unassigned) [Example 104, 2-[1-[2-[1-(4-Cyano-2-fluoro-phenyl)pyrazol-4-yl]-6-methyl-4-oxo-chromen-8-yl]ethylamino]benzoic acid, Isomer 2,2,2,2-trifluoroacetic acid]: the IC50 in assay [1] (Soy PI lipid substrate) is 0.5 to 1 µM; in assay [2] (Soy PI lipid substrate), more than 10 µM.

On to `COc1ncc(-n2cc(-c3cc(=O)c4cc(C)cc(C(C)Nc5ccccc5C(=O)O)c4o3)cn2)cn1` (single isomer, unassigned) [Example 105, 2-[1-[2-[1-(2-Methoxypyrimidin-5-yl)pyrazol-4-yl]-6-methyl-4-oxo-chromen-8-yl]ethylamino]benzoic acid, Isomer 2,2,2,2-trifluoroacetic acid], for which the 50% inhibitory concentration (IC50) in assay [1] (Soy PI lipid substrate) was 0.5 to 1 µM; in assay [2] (Soy PI lipid substrate) it was more than 10 µM.

With `Cc1cc(C(C)Nc2ccccc2C(=O)O)c2oc(-c3cnn(-c4ccc(Cl)cc4)c3)cc(=O)c2c1` (single isomer, unassigned) [Example 106, 2-[1-2-[1-(4-Chiorophenyl)pyrazol-4-yl]-6-methyl-4-oxo-chromen-8-yl]ethylamino]benzoic acid, Isomer 2,2,2,2-trifluoroacetic acid], the results for the half-inhibitory concentration (IC50) in assay [1] (Soy PI lipid substrate) and in assay [2] (Soy PI lipid substrate) were less than 0.5 µM and 1 to 5 µM, respectively.

For the compound `Cc1cc(C(C)Nc2ccccc2C(=O)O)c2oc(-c3cnn(-c4ccccc4C#N)c3)cc(=O)c2c1` (single isomer, unassigned) [Example 107], the IC50 in assay [1] (Soy PI lipid substrate) was less than 0.5 µM; in assay [2] (Soy PI lipid substrate) it was more than 10 µM.

In the case of `Cc1cc(C(C)Nc2ccccc2C(=O)O)c2oc(-c3cnn(-c4ccccn4)c3)cc(=O)c2c1` (single isomer, unassigned) [Example 108, 2-[1-[6-Methyl-4-oxo-2-[1-(2-pyridyl)pyrazol-4-yl]chromen-8-yl]ethylamino]benzoic acid, Isomer 2,2,2,2-trifluoroacetic acid], the figures for the IC50 in assay [1] (Soy PI lipid substrate) and in assay [2] (Soy PI lipid substrate) were 0.5 to 1 µM and 1 to 5 µM, respectively.

For the compound `Cc1cc(C(C)Nc2ccccc2C(=O)O)c2oc(-c3cn(-c4ccc(C#N)cc4)nc3C)cc(=O)c2c1` (single isomer, unassigned) [Example 109, 2-[1-[2-[1-(4-Cyanophenyl)-3-methyl-pyrazol-4-yl]-6-methyl-4-oxo-chromen-8-yl]ethylamino]benzoic acid, Isomer 2,2,2,2-trifluoroacetic acid], the half-maximal inhibitory concentration (IC50) in assay [1] (Soy PI lipid substrate) fell in the range of 0.5 to 1 µM; in assay [2] (Soy PI lipid substrate) it was 5 to 10 µM.

As to `Cc1cc(C(C)Nc2ccccc2C(=O)O)c2oc(-c3cnccn3)cc(=O)c2c1` (single isomer, unassigned; isomer 1) [Example 15, 2-[1-(6-Methyl-4-oxo-2-pyrazin-2-yl-chromen-8-yl)ethylamino]benzoic acid, Isomer 1], the concentration for half-maximal inhibition (IC50) was less than 0.5 µM in assay [1] (PIP2diC8 lipid substrate) and 1 to 5 µM in assay [2] (PIP2diC8 lipid substrate).

For `Cc1cc(C(C)Nc2ccccc2C(=O)O)c2oc(-c3ccccn3)cc(=O)c2c1` (single isomer, unassigned; isomer 1) [Example 17, 2-[1-[6-Methyl-4-oxo-2-(2-pyridyl)chromen-8-yl]ethylamino]benzoic acid, Isomer 1], the results for the IC50 in assay [1] (Soy PI lipid substrate) and in assay [2] (Soy PI lipid substrate) were less than 0.5 µM and 1 to 5 µM, respectively.

As to `Cc1cc(C(C)Nc2ccc(Cl)nc2C(=O)O)c2oc(-c3ccccn3)cc(=O)c2c1` (single isomer, unassigned; isomer 1) [Example 27, 6-Chloro-3-[1-[6-methyl-4-oxo-2-(2-pyridyl)chromen-8-yl]ethylamino]pyridine-2-carboxylic acid, Isomer 1], the figures for the concentration for half-maximal inhibition (IC50) in assay [1] (Soy PI lipid substrate) and in assay [2] (Soy PI lipid substrate) were less than 0.5 µM and 1 to 5 µM, respectively.

Regarding `Cc1cc(C(C)Nc2ccc(Cl)nc2C(=O)O)c2oc(-c3cnccn3)cc(=O)c2c1` (single isomer, unassigned; isomer 1) [Example 28, 6-Chloro-3-[1-(6-methyl-4-oxo-2-pyrazin-2-yl-chromen-8-yl)ethylamino]pyridine-2-carboxylic acid, Isomer 1], the results for the IC50 in assay [1] (Soy PI lipid substrate) and in assay [2] (Soy PI lipid substrate) were less than 0.5 µM and 1 to 5 µM, respectively.

These data come from patent publication US20230014445A1, “ALLOSTERIC CHROMENONE INHIBITORS OF PHOSPHOINOSITIDE 3-KINASE (PI3K) FOR THE TREATMENT OF DISEASE” (Petra Pharma Corporation, priority 2021, published 2023).
